The source of these data is patent US20220226342A1, “COMPOSITIONS AND METHODS OF TREATING LIVER CANCERS” (The Johns Hopkins University, priority 2019, published 2022).

pIC50: −log10 of the molar value.

Broadly, the pIC50 is the IC50 on a negative log10 scale, so that one unit is a factor of ten.

The subject of one series is PDX50. The series is described as follows: HCC patient derived xenograft model PDX50. On the technique in general: A xenograft is tissue or cells of one species grown in another, often human tumour cells in immunodeficient mice.
Another series has as its system XIAP. Kind of series: oncoprotein level by FACS at 96 h in 6 HCC PDO lines. In kind it is cell-based, human. From the text:
(§1) FIG. 3A-3H. Mechanism of Omacetaxine action on different HCC patient derived organoids lines. (3A). […] (3B). […] (3C) The mean fluorescence intensity ratio reflected protein synthesis rate of the plots data in (a). (3D-3H).
(§2) Select oncoproteins, such as MYC, beta-catenin, Cyclin D1, XIAP and MET are short half-life proteins^20, 26, 27.
In general terms: A flow cytometer gives signals particle by particle.

For another series, the system named is beta-catenin. The series is described as above. It counts as cell-based, human.
Source text: as §1, §2

The test system of a further series is Cyclin D1. Described as above. It counts as cell-based, human.
Source text: as §1, §2

Another series deals with MET. Described as above. It counts as cell-based, human.
Source text: as §1, §2

Another series relates to MYC. The description is as above. In kind it is cell-based, human.
Source text: as §1, §2

The subject of series [1] is 26-3 PDX. Kind of series: Cleaved Caspase 3 staining of PDX tumor frozen sections. It counts as in vivo, NSG mice. The conditions noted are these: omacetaxine treated HCC PDX tumors vs matched controls. The text has this:
(§3) FIG. 8A-8G. Omacetaxine inhibits tumor cell proliferation and increases apoptosis and suppressed HCC oncoprotein expression in vivo. (8A-8D) Immunofluorescent staining of Ki67 and cleaved caspase 3 expression in 26-3 PDX model. 8A-8B show the IF staining pictures, 8C-8D show the relative Ki67 or cleaved caspase 3 positive cell number in omacetaxine treated mice compared with control treatment groups. (8E-8G) Omacetaxine suppressed HCC oncoprotein: c-Myc, Beta-catenin and MET protein expression in 50 HCC PDX treated with Omacetaxine vs control.
(§4) To verify the mechanism of omacetaxine target HCC mechanism in vivo, omacetaxine treated HCC PDX tumors, as well as matched controls, were harvested, and frozen section slides were made. […] The difference in apoptosis as well as proliferation was statistically significant (FIGS. 8C and 8D).

Series [2] relates to 6 HCC PDO lines. The series is described as follows: FACS analysis of BrdU incorporation (proliferation). It counts as cell-based, human.
Series [3] relates to 26-3 PDX. Kind of series: Ki67 immunofluorescent staining of PDX tumor frozen sections. It counts as in vivo, NSG mice. The conditions noted are these: omacetaxine treated HCC PDX tumors vs matched controls.
Source text: as §3, §4

Series [4] deals with global protein synthesis in 6 HCC PDOs. The series is described as follows: OP-Puro incorporation assay (EZClick Global Protein Synthesis Assay). It counts as cell-based, human.
Source text: as §1

In series [5] the test system is 40 HCC PDO lines. Kind of series: omacetaxine dose response, IC50 across all 40 HCC PDO lines. It counts as cell-based. Particulars: Homo sapiens; average of 40 HCC PDO lines; read-out: calculated average IC50 across all 40 HCC PDO lines. As for the experimental part:
(§5) FIG. 2A-2E. 10 μM drug screening and IC50 calculation across 40 PDOs from 20 HCC patients. (2A). 10 μM drug screening of omacetaxine and sorafenib, regorafenib, lenvatinib and cabozantinib on 40 PDOs derived from 20 HCC patients. X axis—the 40 PDO lines, Y axis—Cell viability. (2B). IC50 curve of 40 PDO lines, x-axis—omacetaxine dose, Y axis—Relative cell viability. (2C). […] (2D). IC50 distribution of 40 HCC PDOs. X axis—PDO lines, Y axis—IC50 number of omacetaxine for each PDO.

The next series has as its system PDX26-3. As to the method: FIG. 7A-7I. […] Significance was determined with log rank test. […] Error bars represent Mean±standard deviation. […] (7J).
Patient derived xenograft (PDX) models of human cancer are well documented to recapitulate primary tumor biology, as well as response to treatment^28, 29. Two PDX models from HCC patients were established in the inventors' lab with the purpose of creating a platform for further validation of drug leads. The first model, PDX26-3, was established by subcutaneous injection of HCC PDO cells into NOD SCID-IL2R-γ chain-deficient mice (NSG, Jackson Lab). More specifically, PDX26-3 is established from PDO26-3 cells at passage 3. After the initial PDX establishment, the model is perpetuated by implantation of pieces of tumors from current generation PDX mice into the next (as described in Materials and Methods).

Series [6] has as its system 40 HCC PDO lines. Kind of series: 10 μM drug screening, cell viability at 96 h (CellTiter-Glo). In kind it is cell-based, human. As for the experimental part: as §5
As readout of drug effectiveness, cell viability at 96 hours (h) was measured. White light microscopy images of one of the HCC PDO lines across 129 drugs was prepared. In FIG. 2E, each panel represents the image collected at 96 hours after treatment with each drug, at a concentration of 10 μM. […] To quantify survival, we implemented CellTiter-Glo, a luminescent cell viability assay. A total of 129 readings (one for each drug) was obtained for each of the 40 PDO lines, for a total of […] data points. […] Next, the inventors contrasted the survival of the […] HCC PDO lines when treated with omacetaxine versus current FDA approved drugs for HCC.
Background: Cellular ATP, detected with luciferase, serves as a proxy for viable cell number.

Series [7] concerns 6 HCC PDO lines. Kind of series: FACS analysis of Ki67 protein. In kind it is cell-based, human. The conditions noted are these: all 6 HCC PDO lines tested. As to the method: FIG. 4A-4D. Proliferation assay of HCC PDOs treated with omacetaxine in vitro. […] (4B and 4D).Ki67 expression from 6 HCC PDO lines treated with omacetaxine were analyzed with flow cytometry. […] The effects on proliferation were assessed to elucidate the omacetaxine mechanisms of action. […] To further understand the effects of omacetaxine on cancer cell proliferation and cell cycle, the inventors performed FACS analysis of Ki67 protein. Ki-67 is a nuclear protein expressed in proliferating cells (in all phases of the cell cycle except G0)^22,23. Furthermore, the higher expression of Ki67 has been linked to poorer disease free survival and overall survival in HCC^24. […] As caspase 3 is a key molecule in apoptosis, the inventors measured its activated (cleaved) fragment.

Source text for PDX50: P<0.001. Error bars represent Mean±standard deviation. Not significant (NS).
The second model, PDX50, was established by directly implanting pieces of the fresh human HCC tumor into NSG mice. After initial implantation, PDX50 is perpetuated similarly to PDX26-3. […] PDX50 is less aggressive—mice continue to be active, to eat and function normally, in spite of very large tumors. Therefore, PDX50 is not ideal for survival determinations.

Consider `COC(=O)C[C@](O)(CCCC(C)(C)O)C(=O)O[C@@H]1C(OC)=C[C@]23CCCN2CCc2cc4c(cc2[C@H]13)OCO4` [omacetaxine, omacetaxine mepusuccinate], for which the “body mass of mice, treatment vs. control group” value is “no difference in the body mass” with PDX50 and “no difference in the body mass” in the series on PDX26-3 (mouse, in vivo). The tumor growth entry in the series on PDX50 (PDX50 mice, treatment applied directly into the tumor) is “halting of tumor growth”; with PDX26-3 (PDX26-3 mice, treatment applied directly into the tumor), “halting of tumor growth”. Besides, the XIAP level result in the series with XIAP is “inhibited”. In addition, the beta-catenin level entry in the series with beta-catenin was “inhibited”. The “Cyclin D1 level” value in the series with Cyclin D1 is listed as “inhibited”. The MET level result with MET is given as “inhibited”. Moreover, the MYC level entry with MYC is recorded as “inhibited”. Also, the “apoptosis as quantified by Cleaved Caspase 3 staining” value with 26-3 PDX [1] is recorded as “increased”. Moreover, the “BrdU incorporation in newly synthetized DNA (proliferation)” value with 6 HCC PDO lines [2] is reported as “inhibited incorporation”. Moreover, the “proliferation as measured by Ki67 protein expression” value with 26-3 PDX [3] is “less”. Also, the global protein synthesis entry in [4] (150 nM and 700 nM, 6 HCC PDOs, 36 h) was “drastically inhibited global protein synthesis”. Further, the “protein synthesis inhibition at 700 nM compared with 150 nM” value in [4] (700 nM vs 150 nM) was “did not induce any further inhibition of protein synthesis”. The pIC50 in the series with 40 HCC PDO lines [5] was 7.45. Moreover, the “size of the tumors at the end of the treatment” value with PDX26-3 (PDX26-3, day 30, vs control) is “statistically significant difference”. The “weight of the tumors at the end of the treatment” value in the series on PDX26-3 (PDX26-3, day 30, vs control) is “statistically significant difference”. Further, the increase in survival result in the series on PDX26-3 (PDX26-3 mice, statistically significant) is recorded as “approximately 100%”. Also, the “survival of HCC PDO lines versus FDA approved HCC drugs (sorafenib, lenvatinib, regorafenib, cabozantinib)” value with 40 HCC PDO lines [6] was “significantly more effective than first line HCC drugs (sorafenib and lenvatinib) and second line HCC drugs (regorafenib and cabozantinib”. The “effectiveness in screen (growth inhibited by ≥50%)” value in the series on 40 HCC PDO lines [6] (96 h) is reported as “effective across all 40 HCC PDO lines”. Further, the “average HCC PDO survival” value in the series on 40 HCC PDO lines [6] (96 h, across all 40 HCC PDO lines) was 4.2%. For the same compound, in the series with 6 HCC PDO lines [7], the “expression of Ki67” value is listed as “reduces the expression of Ki67”.
